Measured values from PMC10108397 (ACS Medicinal Chemistry Letters, 2023).

Tests used:
Kinetic solubility = details: for measured solubility relative to the dose concentration: actual solubility estimated to be higher than Table 1; for solubility kinetic at 24 h: pH 7.4, kinetic solubility, PBS pH 7.4, 24-hour incubation
DYRKs and HIPKs = test: Enzymatic profiling, 8-member DYRK and HIPK panel; format: biochemical; details: 1 μM
MDA-MB-231 cells [1] = test: MDA-MB-231 cell viability assay; format: cell-based; details: 48 h, up to 10 μM
PIP5K1C = PIP5K1C (Homo sapiens, UniProt O60331); test: Enzymatic assay, dose-response; format: biochemical
PAMPA = format: in vitro ADME; details: correlation
CK2α and CK2α′ = test: CK2 NanoBRET assays
MDA-MB-231 cells [2] = details: 2–10 μM, 24–72 h, WST-1; cited from earlier work
[3] = test system: 13 multiple myeloma cell lines; details: cited from earlier work
phospho-AKT (Ser129) = test: Western blot analyses of pAKT and AKT in MDA-MB-231 cells; format: cell-based; details: 24 h exposure

PIP5K1C, sequence (O60331 whole entry): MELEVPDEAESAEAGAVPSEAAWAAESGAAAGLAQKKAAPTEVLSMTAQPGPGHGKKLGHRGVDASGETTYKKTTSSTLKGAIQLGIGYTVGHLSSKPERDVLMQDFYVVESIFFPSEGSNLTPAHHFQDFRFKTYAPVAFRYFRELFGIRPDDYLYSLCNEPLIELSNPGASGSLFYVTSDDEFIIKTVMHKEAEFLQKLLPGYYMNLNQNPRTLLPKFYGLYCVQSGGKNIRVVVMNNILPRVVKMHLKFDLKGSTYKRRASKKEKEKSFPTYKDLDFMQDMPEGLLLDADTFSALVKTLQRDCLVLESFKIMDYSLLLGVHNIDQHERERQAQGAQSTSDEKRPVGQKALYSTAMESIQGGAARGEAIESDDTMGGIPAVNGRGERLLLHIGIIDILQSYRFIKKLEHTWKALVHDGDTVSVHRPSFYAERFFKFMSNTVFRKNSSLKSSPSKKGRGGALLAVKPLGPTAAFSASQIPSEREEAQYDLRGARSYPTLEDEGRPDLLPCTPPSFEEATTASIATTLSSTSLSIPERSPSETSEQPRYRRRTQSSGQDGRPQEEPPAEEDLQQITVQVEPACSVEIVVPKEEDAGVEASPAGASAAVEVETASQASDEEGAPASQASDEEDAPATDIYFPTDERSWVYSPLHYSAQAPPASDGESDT

Compound	measured solubility relative to the dose concentration (Kinetic solubility)	solubility kinetic at 24 h (Kinetic solubility) [µM]	activity in DYRK and HIPK enzymatic panel (DYRKs and HIPKs)	also measured
O=C(O)c1ccc2c(c1)nc(Nc1cccc(F)c1)c1ncncc12 [Compound 13]	greater than 75%	–	–	–
O=C(O)c1ccc2c(c1)nc(Nc1ccc3ccccc3c1)c1ncncc12 [Compound 11]	–	–	–	observation during solubility assessment (Kinetic solubility): insoluble residue
N#Cc1cccc(Nc2nc3cc(C(=O)O)ccc3c3cncnc23)c1 [CX-5011, reference compound]	–	–	–	cytotoxicity (MDA-MB-231 cells [1]): did not exhibit cytotoxicity
O=C(O)c1ccc2c(c1)nc(NCCc1cccc(F)c1)c1ncncc12 [Compound 10]	–	> 100	potent inhibition of just one kinase	–
O=C(O)c1ccc2c(c1)nc(NCc1ccccc1)c1ncccc12 [Compound 7]	–	–	–	cytotoxicity (MDA-MB-231 cells [1]): did not exhibit cytotoxicity; PIP5K1C inhibition, enzymatic follow-up (PIP5K1C): did not result in PIP5K1C inhibition; human fraction absorbed (%FA) correlated with PAMPA Pe (PAMPA): greater than 80%; binding in CK2α and CK2α′ NanoBRET assays (CK2α and CK2α′): not bind either kinase at concentrations up to 10 μM
O=C(O)c1ccc2c(c1)nc(Nc1ccc(Cl)cc1)c1ncncc12 [Compound 12]	greater than 75%	–	–	–
O=C(O)c1ccc2c(c1)nc(Nc1ccccc1Cl)c1ncncc12 [Compound 15]	–	–	–	observation during solubility assessment (Kinetic solubility): insoluble residue
O=C(O)c1ccc2c(c1)nc(Nc1cccc(Cl)c1)c1ccncc12 [CX-4945, 5-(3-chlorophenylamino)benzo[c][2,6]naphthyridine-8-carboxylic acid, reference compound]	–	–	–	cytotoxicity (MDA-MB-231 cells [1]): did not exhibit cytotoxicity; cell growth (MDA-MB-231 cells [2]): cell growth is inhibited; antiproliferative activity [3]: low micromolar antiproliferative activity; AKT phosphorylation (phospho-AKT (Ser129)): dose-dependent inhibition of AKT phosphorylation; total AKT expression (phospho-AKT (Ser129)): no impact on total AKT expression
COc1cccc(CCNc2nc3cc(C(=O)O)ccc3c3cncnc23)c1 [Compound 8]	greater than 75%	> 100	lacked activity against DYRKs and HIPKs	–
O=C(O)c1ccc2c(c1)nc(NCc1ccccc1)c1ncncc12 [Compound 2]	greater than 75%	> 100	lacked activity against DYRKs and HIPKs	cytotoxicity (MDA-MB-231 cells [1]): neither compound 2 nor SGC-CK2-1 exhibited significant cytotoxicity; human fraction absorbed (%FA) correlated with PAMPA Pe (PAMPA): greater than 80%; AKT phosphorylation (phospho-AKT (Ser129)): dose-dependent inhibition of AKT phosphorylation; total AKT expression (phospho-AKT (Ser129)): no impact on total AKT expression
O=C(O)c1ccc2c(c1)nc(NCCc1cccc(Cl)c1)c1ncncc12 [Compound 9]	–	> 100	lacked activity against DYRKs and HIPKs	–

More lines, main results first:

measured solubility relative to the dose concentration (Kinetic solubility)	solubility kinetic at 24 h (Kinetic solubility) [µM]	Compound	activity in DYRK and HIPK enzymatic panel (DYRKs and HIPKs)	also measured
–	> 100	O=C(O)c1ccc2c(c1)nc(NCCc1ccccc1)c1ncncc12 [Compound 17]	potent inhibition of just one kinase	–
greater than 75%	> 100	O=C(O)c1ccc2c(c1)nc(NCCc1cccc(F)c1)c1ccncc12 [Compound 22]	–	–
greater than 75%	> 100	O=C(O)c1ccc2c(c1)nc(NCCc1cccc(Cl)c1)c1ccncc12 [Compound 18]	potent inhibition of just one kinase	–
greater than 75%	> 100	COc1cccc(CCNc2nc3cc(C(=O)O)ccc3c3cnccc23)c1 [Compound 24]	potent inhibition of just one kinase	–
greater than 75%	> 100	O=C(O)c1ccc2c(c1)nc(NCc1ccccc1)c1ccncc12 [Compound 21]	lacked activity against DYRKs and HIPKs	–
greater than 75%	–	O=C(O)c1ccc2c(c1)nc(Nc1ccccc1)c1ccncc12 [Compound 25]	–	–
greater than 75%	–	O=C(O)c1ccc2c(c1)nc(Nc1cccc(F)c1)c1ccncc12 [Compound 23]	–	–
greater than 75%	> 100	O=C(O)c1ccc2c(c1)nc(NCCc1ccccc1)c1ccncc12 [Compound 27, 5-(phenethylamino)benzo[c][2,6]naphthyridine-8-carboxylic acid]	–	–
greater than 75%	–	COc1cccc(Nc2nc3cc(C(=O)O)ccc3c3cnccc23)c1 [Compound 28, 5-((3-methoxyphenyl)amino)benzo[c][2,6]naphthyridine-8-carboxylic acid]	–	–
greater than 75%	–	O=C(O)c1ccc2c(c1)nc(Nc1ccccc1)c1ncncc12 [Compound 16]	–	–
